Data as given in ChEMBL document CHEMBL1150406, “Novel triterpenoid from Citrus aurantium L. possesses chemopreventive properties against human colon cancer cells” (Bioorg Med Chem, 2008).
Active and inactive are the calls of the source. The rule behind the calls is not given here.

Key:
HT-29 [1] = test: Cell cycle arrest in human HT29 cells by accumulation at G0/G1 phase at 5 uM after 48 hrs by flow cytometry; type: functional
HT-29 [2] = test: Induction of apoptosis in human HT29 cells at 10 uM by nuclear staining method; type: functional, cell-based
HT-29 [3] = test: Cell cycle arrest in human HT29 cells by accumulation at G2/M phase at 5 uM after 48 hrs by flow cytometry; type: functional
HT-29 [4] = test: Cytotoxicity against human HT29 cells after 48 hrs by MTT assay; type: functional, cell-based
HT-29 [5] = test: Cytotoxicity against human HT29 cells at 5 uM after 72 hrs by MTT assay; type: functional
HT-29 [6] = test: Cytotoxicity against human HT29 cells at 2.5 uM after 48 hrs by MTT assay; type: functional, cell-based
HT-29 [7] = test: Cell cycle arrest in human HT29 cells by accumulation at S phase at 5 uM after 48 hrs by flow cytometry; type: functional
[8] = Growth inhibition of monkey COS1 cells by flow cytometry; type: cell-based; details: cos-1
HT-29 [9] = test: Cell cycle arrest in human HT29 cells by accumulation at G0/G1 phase at 10 uM after 48 hrs by flow cytometry; type: functional
HT-29 [10] = test: Cell cycle arrest in human HT29 cells assessed as background aggregates and debris at 5 uM after 48 hrs by flow cytometry; type: functional
HT-29 [11] = test: Cell cycle arrest in human HT29 cells by accumulation at S phase at 10 uM after 48 hrs by flow cytometry; type: functional
HT-29 [12] = test: Cell cycle arrest in human HT29 cells assessed as background aggregates and debris at 10 uM after 48 hrs by flow cytometry; type: functional
HT-29 [13] = test: Cell cycle arrest in human HT29 cells by accumulation at G2/M phase at 10 uM after 48 hrs by flow cytometry; type: functional
HT-29 [14] = test: Cytotoxicity against human HT29 cells at 10 uM after 24 hrs by MTT assay; type: functional, cell-based

Q: With `CC(C)(O)[C@@H]1CC(=O)[C@]2(C)[C@H](CC[C@@]3(C)[C@H](C4=CC(O)OC4=O)OC(=O)[C@H]4O[C@]432)[C@]12COC(=O)C[C@@H]2O` (stereo partly specified) [ICHANEXIC ACID] as the molecule, how does the Activity (HT-29 [1]) read?
A: 91.3%

Q: And the Activity (HT-29 [2])?
A: Active

Q: And the Activity (HT-29 [3])?
A: 8.7%

Q: What about the Activity (HT-29 [4]) of the same molecule?
A: Active

Q: What about the Activity (HT-29 [5]) of the same molecule?
A: 20%

Q: And the Activity (HT-29 [6])?
A: Active

Q: And the Activity (HT-29 [7])?
A: 4.1%

Q: What about the Activity [8] of the same molecule?
A: Not Active

Q: What about the Activity (HT-29 [9]) of the same molecule?
A: 70.2%

Q: And the Activity (HT-29 [10])?
A: 42.9%

Q: What about the Activity (HT-29 [11]) of the same molecule?
A: 6%

Q: What about the Activity (HT-29 [12]) of the same molecule?
A: 75.1%

Q: And the Activity (HT-29 [13])?
A: 23.8%

Q: What about the Activity (HT-29 [14]) of the same molecule?
A: Active

Q: What does the source list for `CC1(C)OC[C@@]2([C@@H](O)CC(=O)O)[C@H]3CC[C@@]4(C)[C@H](c5ccoc5)OC(=O)[C@H]5O[C@]54[C@]3(C)C(=O)C[C@@H]12` [ISOLIMONOIC ACID]?
A: Activity (HT-29 [1]): 91%; Activity (HT-29 [2]): Active; Activity (HT-29 [3]): 6.1%; Activity (HT-29 [5]): 20%; Activity (HT-29 [6]): Active; Activity (HT-29 [7]): 4%; Activity [8]: Not Active; Activity (HT-29 [9]): 69.9%; Activity (HT-29 [10]): 34.8%; Activity (HT-29 [11]): 12.7%; Activity (HT-29 [12]): 75.5%; Activity (HT-29 [13]): 17.4%
